Experimental findings from patent US8653263B2 (Janssen Pharmaceutica, priority 2009, dated 2014) are described below.

Molecules are shown by their SMILES.

Sequence of human orexin-2 receptor (O43614 whole entry): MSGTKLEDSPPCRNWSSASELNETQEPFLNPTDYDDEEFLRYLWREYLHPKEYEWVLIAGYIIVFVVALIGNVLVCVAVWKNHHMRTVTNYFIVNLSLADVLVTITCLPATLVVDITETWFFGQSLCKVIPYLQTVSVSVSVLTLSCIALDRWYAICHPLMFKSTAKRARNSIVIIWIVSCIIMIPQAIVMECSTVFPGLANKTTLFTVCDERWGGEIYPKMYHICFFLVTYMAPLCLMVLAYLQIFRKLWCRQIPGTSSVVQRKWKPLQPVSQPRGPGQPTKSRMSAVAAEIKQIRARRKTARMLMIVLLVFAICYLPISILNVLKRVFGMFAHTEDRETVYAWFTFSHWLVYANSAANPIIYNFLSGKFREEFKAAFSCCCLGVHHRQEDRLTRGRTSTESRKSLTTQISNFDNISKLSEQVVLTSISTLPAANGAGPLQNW

This experiment concerns the target human orexin-2 receptor (Homo sapiens (Human), UniProt O43614). Briefly: Human orexin 2 receptor radioligand binding ([3H]-EMPA competition). The note with it: HEK293 cells stably expressing human orexin-2 receptor; [3H]-EMPA 5 nM final; apparent Ki=IC50/(1+C/Kd), Kd=2 nM; read-out: OR 2 Ki.
For the compound `O=C(c1cc(F)ccc1-c1ncccn1)N1CC2CN(c3cnc4ccccc4n3)CC2C1` (centres unmarked) [Example 146, 2-{5-[(5-Fluoro-2-pyrimidin-2-ylphenyl)carbonyl]hexahydropyrrolo[3,4-c]pyrrol-2(1H)-yl}quinoxaline], the Ki came out at 0.027 µM.

Take `COc1ccc(C(=O)N2CC3CN(c4nc(C)cc(C)n4)CC3C2)c(-n2ccnn2)c1` (centres unmarked) [Example 289]: the Ki turned out to be 1.8 µM.

For the compound `COc1ccnc(N2CC3CN(C(=O)c4ccccc4-c4cccc(Cl)c4)CC3C2)n1` (centres unmarked) [Example 55, 2-[(3′-Chlorobiphenyl-2-yl)carbonyl]-5-(4-methoxypyrimidin-2-yl)octahydro-pyrrolo[3,4-c]pyrrole], the Ki was 0.744 µM.

Consider `O=C(c1ccccc1-c1ccc(C(F)(F)F)cc1)N1CC2CN(c3nccc(-c4ccccc4)n3)CC2C1` (centres unmarked) [Example 196, [5-(4-Phenyl-pyrimidin-2-yl)-hexahydro-pyrrolo[3,4-c]pyrrol-2-yl]-(4′-trifluoromethyl-biphenyl-2-yl)-methanone], for which the Ki turned out to be 10 µM.

For the compound `Cc1cc(C)nc(N2CC3CN(C(=O)c4nc(C)sc4-c4ccc(F)cc4)CC3C2)n1` (centres unmarked) [Example 254, 2-(4,6-Dimethylpyrimidin-2-yl)-5-{[5-(4-fluorophenyl)-2-methyl-1,3-thiazol-4-yl]carbonyl}octahydropyrrolo[3,4-c]pyrrole], the Ki is 2.2 µM.

Take `COc1ccc(C(=O)N2CC3CN(c4nc(C)c(F)c(C)n4)CC3C2)c(-n2nccn2)c1` (centres unmarked) [Example 379, 2-(5-Fluoro-4,6-dimethylpyrimidin-2-yl)-5-{[4-methoxy-2-(2H-1,2,3-triazol-2-yl)phenyl]carbonyl}octahydropyrrolo[3,4-c]pyrrole]: the Ki amounted to 0.009 µM.

As to `O=C(O)c1cnc(N2CC3CN(C(=O)c4c(F)cccc4-n4nccn4)CC3C2)nc1C(F)(F)F` (centres unmarked) [Example 263, 2-(5-(2-Fluoro-6-(2H-1,2,3-triazol-2-yl)benzoyl)hexahydropyrrolo[3,4-c]pyrrol-2(1H)-yl)-4-(trifluoromethyl)pyrimidine-5-carboxylic acid], the Ki came to 10 µM.

In the case of `CCOc1ccccc1C(=O)N1CC2CN(c3nc(C)cc(C)n3)CC2C1` (centres unmarked) [Example 88, 2-(4,6-Dimethylpyrimidin-2-yl)-5-[(2-ethoxyphenyl)carbonyl]octahydropyrrolo[3,4-c]pyrrole], the Ki was 0.075 µM.

Regarding `O=C(c1ccccc1-n1nccn1)N1CC2CN(c3ccc(F)cn3)CC2C1` (centres unmarked) [Example 152, 2-(5-Fluoropyridin-2-yl)-5-{[2-(2H-1,2,3-triazol-2-yl)phenyl]carbonyl}octahydro pyrrolo[3,4-c]pyrrole], the Ki amounted to 0.125 µM.

With `CCCOc1cccnc1C(=O)N1CC2CN(c3nc(C)cc(C)n3)CC2C1` (centres unmarked) [Example 344, (5-(4,6-dimethylpyrimidin-2-yl)hexahydropyrrolo[3,4-c]pyrrol-2(1H)-yl)(3-propoxypyridin-2-yl)methanone], the Ki amounted to 1.5 µM.

In the case of `Cc1ccnc(-c2ccc(F)cc2C(=O)N2CC3CN(c4nc(C)cc(C)n4)CC3C2)c1` (centres unmarked) [Example 400, (5-(4,6-Dimethylpyrimidin-2-yl)hexahydropyrrolo[3,4-c]pyrrol-2(1H)-yl)(5-fluoro-2-(4-methylpyridin-2-yl)phenyl)methanone], the Ki turned out to be 0.51 µM.

In the case of `COc1c(C(=O)N2CC3CN(c4nc(C)cc(C)n4)CC3C2)ccc2ccccc12` (centres unmarked) [Example 340, [5-(4,6-Dimethyl-pyrimidin-2-yl)-hexahydro-pyrrolo[3,4-c]pyrrol-2-yl]-(1-methoxy-naphthalen-2-yl)-methanone], the Ki was found to be 1.52 µM.

On to `Cc1cc(C)nc(N2CC3CN(C(=O)c4cccc(C)c4-n4ccnn4)CC3C2)n1` (centres unmarked) [Example 267, (5-(4,6-Dimethylpyrimidin-2-yl)hexahydropyrrolo[3,4-c]pyrrol-2(1H)-yl)(3-methyl-2-(1H-1,2,3-triazol-1-yl)phenyl)methanone], for which the Ki stood at 10 µM.

`Cc1ccc(-c2ncccn2)c(C(=O)N2CC3CN(c4nc(C)cnc4C)CC3C2)c1` (centres unmarked) [Example 103, 2-(3,6-Dimethylpyrazin-2-yl)-5-[(5-methyl-2-pyrimidin-2-ylphenyl)carbonyl]octahydropyrrolo[3,4-c]pyrrole]: the Ki stood at 0.038 µM.

Regarding `O=C(c1ccccc1-c1ccccc1)N1CC2CN(c3ccc4ccccc4n3)CC2C1` (centres unmarked) [Example 175, 2-[5-(Biphenyl-2-ylcarbonyl)hexahydropyrrolo[3,4-c]pyrrol-2(1H)-yl]quinoline], the Ki is 0.669 µM.

Turning to `COc1ccc(C(=O)N2CC3CN(c4ncc(Cl)c(C)n4)CC3C2)c(-n2nccn2)c1` (centres unmarked) [Example 378, 2-(5-Chloro-4-methylpyrimidin-2-yl)-5-{[4-methoxy-2-(2H-1,2,3-triazol-2-yl)phenyl]carbonyl}octahydropyrrolo[3,4-c]pyrrole], the Ki worked out at 0.01 µM.

`CCOc1ccc(OCC)c(C(=O)N2CC3CN(c4nc(C)cc(C)n4)CC3C2)c1` (centres unmarked) [Example 228, 2-[(2,5-Diethoxyphenyl)carbonyl]-5-(4,6-dimethylpyrimidin-2-yl)octahydropyrrolo[3,4-c]pyrrole]: the Ki turned out to be 0.184 µM.

On to `Cc1ncnc(N2CC3CN(C(=O)c4c(F)cccc4-n4nccn4)CC3C2)n1` (centres unmarked) [Example 303, 2-{[2-Fluoro-6-(2H-1,2,3-triazol-2-yl)phenyl]carbonyl}-5-(4-methyl-1,3,5-triazin-2-yl)octahydropyrrolo[3,4-c]pyrrole], for which the Ki was 1.7 µM.

Regarding `COc1cc(OC)nc(N2CC3CN(C(=O)c4nc(C)sc4-c4ccccc4F)CC3C2)n1` (centres unmarked) [Example 142, 2-(4,6-Dimethoxypyrimidin-2-yl)-5-{[5-(2-fluorophenyl)-2-methyl-1,3-thiazol-4-yl]carbonyl}octahydropyrrolo[3,4-c]pyrrole], the Ki was 0.315 µM.

Turning to `Cc1cc(C(=O)O)nc(N2CC3CN(C(=O)c4c(F)cccc4-n4nccn4)CC3C2)n1` (centres unmarked) [Example 265, 2-(5-(2-Fluoro-6-(2H-1,2,3-triazol-2-yl)benzoyl)hexahydropyrrolo[3,4-c]pyrrol-2(1H)-yl)-6-methylpyrimidine-4-carboxylic acid], the Ki worked out at 9 µM.

As to `Cc1cnc(C)c(N2CC3CN(C(=O)c4cc(F)ccc4-c4ncccn4)CC3C2)n1` (centres unmarked) [Example 212, [5-(3,6-Dimethyl-pyrazin-2-yl)-hexahydro-pyrrolo[3,4-c]pyrrol-2-yl]-(5-fluoro-2-pyrimidin-2-yl-phenyl)-methanone], the Ki was determined as 0.033 µM.

Turning to `Cc1cc(C)nc(N2CC3CN(C(=O)c4ccccc4-c4ccccc4)CC3C2)n1` (centres unmarked) [Example 44, 2-(Biphenyl-2-ylcarbonyl)-5-(4,6-dimethylpyrimidin-2-yl)octahydropyrrolo[3,4-c]pyrrole], the Ki came out at 0.142 µM.

For the compound `Cc1cc(C)nc(N2CC3CN(C(=O)c4cc(F)ccc4-c4ncccc4F)CC3C2)n1` (centres unmarked) [Example 402, (5-(4,6-Dimethylpyrimidin-2-yl)hexahydropyrrolo[3,4-c]pyrrol-2(1H)-yl)(5-fluoro-2-(3-fluoropyridin-2-yl)phenyl)methanone], the Ki amounted to 0.12 µM.

On to `O=C(c1ccccc1-c1ccccc1)N1CC2CN(c3nc4ccc(F)cc4s3)CC2C1` (centres unmarked) [Example 176, 2-[5-(Biphenyl-2-ylcarbonyl)hexahydropyrrolo[3,4-c]pyrrol-2(1H)-yl]-6-fluoro-1,3-benzothiazole], for which the Ki was determined as 0.236 µM.

Take `Cc1nc2ccccc2nc1N1CC2CN(C(=O)c3ccccc3-c3nnc[nH]3)CC2C1` (centres unmarked) [Example 95, 2-Methyl-3-[5-{[2-(4H-1,2,4-triazol-3-yl)phenyl]carbonyl}hexahydropyrrolo[3,4-c]pyrrol-2(1H)-yl]quinoxaline]: the Ki is 0.215 µM.

`Cc1cc(C)nc(N2CC3CN(C(=O)c4ccccc4F)CC3C2)n1` (centres unmarked) [Example 53, [5-(4,6-Dimethyl-pyrimidin-2-yl)-hexahydro-pyrrolo[3,4-c]pyrrol-2-yl]-(2-fluoro-phenyl)-methanone]: the Ki came out at 5 µM.

`Cc1cc(C)nc(N2CC3CN(C(=O)c4c(F)cccc4-c4ncccn4)CC3C2)n1` (centres unmarked) [Example 73, 2-(4,6-Dimethylpyrimidin-2-yl)-5-[(2-fluoro-6-pyrimidin-2-ylphenyl)carbonyl]octahydropyrrolo[3,4-c]pyrrole]: the Ki was determined as 0.007 µM.

As to `COc1ccc(C(=O)N2CC3CN(c4ncc(F)c(C)n4)CC3C2)c(-n2nccn2)c1` (centres unmarked) [Example 377, 2-(5-Fluoro-4-methylpyrimidin-2-yl)-5-{[4-methoxy-2-(2H-1,2,3-triazol-2-yl)phenyl]carbonyl}octahydropyrrolo[3,4-c]pyrrole], the Ki was found to be 0.017 µM.

On to `Cc1cc(N2CC3CN(C(=O)c4ccccc4-n4nccn4)CC3C2)nc(C(F)(F)F)n1` (centres unmarked) [Example 97, 2-[6-Methyl-2-(trifluoromethyl)pyrimidin-4-yl]-5-{[2-(2H-1,2,3-triazol-2-yl)phenyl]carbonyl}octahydropyrrolo[3,4-c]pyrrole], for which the Ki came to 0.025 µM.

Turning to `O=C(c1cccc2c1OCCO2)N1CC2CN(c3nccc(-c4ccccc4)n3)CC2C1` (centres unmarked) [Example 21, 2-(2,3-Dihydro-1,4-benzodioxin-5-ylcarbonyl)-5-(4-phenylpyrimidin-2-yl)octahydropyrrolo[3,4-c]pyrrole], the Ki was found to be 0.352 µM.

For the compound `COc1cccc(OC)c1C(=O)N1CC2CN(c3nc4ccc(Cl)cc4s3)CC2C1` (centres unmarked) [Example 189, [5-(6-Chloro-benzothiazol-2-yl)-hexahydro-pyrrolo[3,4-c]pyrrol-2-yl]-(2,6-dimethoxy-phenyl)-methanone], the Ki is 1.6 µM.

With `Cc1cc(C)nc(N2CC3CN(C(=O)c4cccnc4Br)CC3C2)n1` (centres unmarked) [Example 234], the Ki came out at 10 µM.

Take `O=C(c1ccccc1-c1cccs1)N1CC2CN(c3nc4ccccc4o3)CC2C1` (centres unmarked) [Example 139, 2-{5-[(2-Thiophen-2-ylphenyl)carbonyl]hexahydropyrrolo[3,4-c]pyrrol-2(1H)-yl}-1,3-benzoxazole]: the Ki is 0.063 µM.

Take `O=C(c1ccccc1-c1ccccc1)N1CC2CN(c3cnc4ccccc4n3)CC2C1` (centres unmarked) [Example 168, 2-[5-(Biphenyl-2-ylcarbonyl)hexahydropyrrolo[3,4-c]pyrrol-2(1H)-yl]quinoxaline]: the Ki was 0.066 µM.

For `Cc1cc(N2CC3CN(C(=O)c4c(F)cccc4-c4ncccn4)CC3C2)nc(C(F)(F)F)n1` (centres unmarked) [Example 117, 2-[(2-Fluoro-6-pyrimidin-2-ylphenyl)carbonyl]-5-[6-methyl-2-(trifluoromethyl)pyrimidin-4-yl]octahydropyrrolo[3,4-c]pyrrole], the Ki came out at 0.024 µM.
